The subject of test [1] is HEK 293 cells. The test can be described thus: Co-apoptotic activity of MBD peptides and paclitaxel, caspase-3. It counts as cell-based, human. To be noted: normalized to MBD2 = 100 on a molar basis; peptide 50 ng/ml, 0.3 ng/ml paclitaxel, 8 hours. How it is done:
Peptides (50 ng/ml) were added to 80% confluent HEK 293 cells grown in DMEM supplemented with 0.3 ng/ml paclitaxel concurrent with peptide. Caspase-3 activity was measured in cell extracts 8 hours post-addition.
(§1) Apoptotic activity is expressed in arbitrary caspase-3 units normalized to MBD2 on a molar basis (MBD2 activity was defined as 100 units (avg. of 3 experiments); “nd” indicates “not done”; “ps” indicates phosphoserine. Metal-binding is expressed as a percentage of loaded peptide bound to a Ni-NTA resin; approximately 1-1.5 mg of peptide were loaded on the column. Cell uptake was determined using genetic fusions to GFP as described in Example 9.

For test [2], the system named is HEK293 cells. The test is described as follows: Nuclear translocation of biotinylated peptide/streptavidin-HRP conjugate. Format: cell-based, human. To be noted: approx. 90 Kd conjugate, 20 minutes; FIG. 24. The procedure:
Biotinylated MBD peptides MBD9, MBD20 ([…] (SEQ ID NO: 37): the MBD core 14mer is underlined, and the caveolin consensus binding sequence is bolded) or MBD21 ([…] (SEQ ID NO: 38): the MBD core 14mer is underlined, and the caveolin consensus binding sequence is bolded) were each mixed with streptavidin-horseradish peroxidase conjugate (3-6× molar excess of MBD peptide) and added to HEK293 cells. After 20 minutes, nuclear and cytoplasmic extracts were prepared as described in Example 20 and assayed for peroxidase activity.

Test [3] deals with HEK293 cells. The test is described as follows: Nuclear translocation of MBD-GFP32 after endocytosis inhibitors. Format: cell-based, human. The note with it: inhibitor 10 μg/ml one hour; 500 ng/ml MBD-GFP32, twenty minutes; FIG. 19. The procedure: HEK293 cells were pre-incubated with inhibitors nystatin (inhibitor of caveolin pathway) or chlorpromazine (inhibitor of clathrin pathway) for one hour at 10 μg/ml. […] Extracts were assayed by anti-GFP ELISA.

Test [4] is described as follows: Metal-binding of peptides to Ni-NTA resin. To be noted: percentage of loaded peptide bound to Ni-NTA resin; 1-1.5 mg loaded. How it is done:
as §1

For test [5], the system named is MA-16C mammary adenocarcinoma tumors. The test can be described thus: MA-16C mammary adenocarcinoma tumor implants. To be noted: DOX study. Format: in vivo, female C3H mice. How it is done: Fragments of MA-16C mammary adenocarcinoma tumors were implanted subcutaneously into female C3H mice (8-11 animals per group). The animals were treated with vehicle alone, IGFBP-3 (4 mg/kg/day for 21 days by subcutaneous injection), doxorubicin (2 mg/kg on days 1 and 8 by intravenous injection), or IGFBP-3 plus doxorubicin. A separate study was performed where the animals were treated with vehicle alone, 5-fluorouracil (10 mg/kg on days 1-5 by intraperitoneal injection), or IGFBP-3 plus 5-fluorouracil. Tumor size was measured at day 18, and the mice were sacrificed at day 21, and the implanted tumors were removed for determination of caspase-3 activity (a marker of apoptosis-only performed for DOX groups).

Test [6] concerns HEK 293 cells. The test can be described thus: IGF-independence of apoptosis stimulation, caspase-3. Format: cell-based, human. How it is done:
HEK 293 cells were cultured under stressed conditions (low serum or in the presence of paclitaxel) with and without IGFBP-3 (50 ng/ml) or MBD2 (50 ng/ml). Apoptosis was assayed using the caspase-3 assay as described in Example 1.

The subject of the next test is MDA-MB-231 cells. The test is described as follows: Sensitization to low dose paclitaxel, NMP levels. It counts as cell-based. The note with it: paclitaxel 100 ng/ml, 50 ng/ml peptide, FIG. 16B. How it is done: MDA-MB-231 cells were cultured in the presence of low dose paclitaxel (100 ng/ml) with and without MDB2 (50 ng/ml). Apoptosis was assayed by measuring NMP levels.

The subject of the next test is MA16C cells. The test can be described thus: Sensitization to low dose doxorubicin, caspase-3. Format: cell-based. The note with it: doxorubicin 75 ng/ml, FIG. 16A. How it is done: MA16C cells were cultured in the presence of MDB2 and a low dose of doxorubicin (75 ng/ml). Apoptosis was assayed using the caspase-3 assay as described in Example 1.
The subject of test [7] is HEK293 cells. The test can be described thus: Caspase-3 apoptosis assay on nutritionally stressed HEK293 cells (Examples 1-2). Format: cell-based, human. How it is done: Human embryonal kidney 293 (HEK293) cells were grown in Dulbecco's Modified Eagle Medium (D-MEM) supplemented with fetal calf serum at 2%, 4%, 6%, or 8%. When the cells reached 80-85% confluency (cell titer approximately 2.1×10^6 cells per plate), 5 μg of IGFBP-3 or buffer control was added to each plate. The cells were incubated at 37° C. overnight. The next day the medium was removed and the cells were rinsed with trypsin-EDTA (0.25% trypsin, 1 mM EDTA) plus 1× phosphate buffered saline. The cells were centrifuged and the supernatant was removed. ApoAlert caspase-3 assay kit from Clontech Inc (Palo Alto, Calif.) was used to measure apoptosis. The cells were resuspended in 50 μl of chilled cell lysis buffer and incubated on ice for 10 minutes. The resulting cell, lysates were centrifuged at 14000 rpm in a Beckman microcentrifuge for 3 minutes at 4 C. The supernatant was transferred to new tubes and 50 μl of 2× reaction buffer/DTT plus 5 μl of 1 mM caspase-3 substrate was added to each tube. After incubating at 37 C. for 1 hour in a water bath, the samples were read at 405 nm in a microplate reader.
Peptides derived from IGFBP-3 were tested for pro-apoptotic activity essentially as described in Example 1.
The peptides tested are described in Table 1 (peptides marked with an asterisk include a hexahistidine tag).

Test [8] deals with HEK293 cells. The test can be described thus: Co-apoptotic activity with paclitaxel in presence of plasma proteins. Format: cell-based, human. To be noted: 50 ng/ml, 0.3 ng/ml paclitaxel, eight hours. How it is done:
Co-apoptotic activity of MBD peptides or IGFBP-3 with paclitaxel was tested in the presence or absence of two plasma proteins; fibronectin and fibrinogen. MBD peptides or IGFBP-3, (50 ng/ml), 0.3 ng/ml paclitaxel, and plasma proteins (200 ng/ml) were added to 80% confluent HEK293 cells grown in DMEM essentially as described in Example 8. Caspase-3 was measured after an eight hour incubation.
Apoptotic activity was calculated in arbitrary caspase-3 units normalized to MBD2 (MBD2 activity was defined as 100 units) Results are summarized in Table 4 (average of 3 experiments).

In test [9] the test system is HEK 293 cells. The test can be described thus: Integrin dependence of pro-apoptotic activity, caspase-3. To be noted: with paclitaxel; FIG. 12A. Format: cell-based, human. The procedure: HEK 293 cells were cultured as described in Example 10, including paclitaxel. Cells were incubated with MDB2 either alone or in combination with an anti-adhesion protein antibody. Antibodies were against integrin associated protein (LAP), fibronectin (Fn), transferrin receptor (TfnR), alpha 5 integrin, alpha 6 integrin, alpha v integrin, beta 1 integrin, and beta 5 integrin. Caspase-3 activity was assayed as described in Example 1.

Test [10] can be described thus: Binding of short peptides to Ni-His-Bind column, imidazole elution. How it is done: We further tested the ability of IGFBP-3-derived sub-domains and peptides to bind metal. As shown in Example 5, below, a defined fragment of IGFBP-3 generated in vivo can be captured on IMAC. Two short peptides were passed through a Ni-His-Bind column:
Both peptides bound specifically to the column. Peptide 1 eluted with 60 mM imidazole, whereas higher concentrations of imidazole (1M) were necessary to elute Peptide 2.

Test [11] deals with HEK 293 cells transfected with dominant negative inserts. The test can be described thus: Co-apoptotic activity in cells with blocked signal transduction. It counts as cell-based, human. To be noted: AktDN, PTEN, ILKdn, rafDN inserts; with paclitaxel; FIG. 15. The procedure:
HEK 293 cells were transfected with pUSEamp, or pUSEamp carrying a Akt dominant negative (AktDN), PTEN, ILK dominant negative (ILKdn) or raf dominant negative (rafDN) insert (Upstate Biotechnologies). The cells were cultured as described in Example 10 (including paclitaxel), with or without MBD2.

Where no end group is shown, it is not given here.

In the case of CRPSKGRKRGFCW [MBD12], in the test with HEK 293 cells [1], the “Apoptotic Activity” value is 10-40 arbitrary caspase-3 units.

“KKGFYKKKQCRPSKGRKRGFCWAVDKYG (cysteine pairing not given here; also: biotinylated, position not given here) [MBD21, tested biotinylated with streptavidin-HRP]”: the “nuclear mobilization of streptavidin-HRP conjugate compared with MBD9” value in the test on HEK293 cells [2] is “far more efficiently”.

QCRPSKGRKRGFC [MBD13]: in the test with HEK 293 cells [1], the “Apoptotic Activity” value was 10-40 arbitrary caspase-3 units.

As to `C[C@@H]1[C@H](O)[C@@H](C)/C=C/C=C/CC/C=C/C=C/C=C/C=C/C(O[C@H]2O[C@H](C)[C@@H](O)[C@H](N)[C@@H]2O)CC2O[C@](O)(CC(O)C(O)CCC(O)CC(O)CC(O)CC(=O)O[C@H]1C)CC(O)C2C(=O)O` (some centres unmarked) [nystatin], the “effect on nuclear translocation of MBD peptides” value with HEK293 cells [3] was “inhibit nuclear translocation of MBD peptides”.

QCKMSLNGQRGECW [BP2n1s]: the “Apoptotic Activity” value in the test on HEK 293 cells [1] is reported as <5 arbitrary caspase-3 units.

In test [4], GFYKKKQCRPSKGRKRGFCW [MBD5] showed a Metal-binding of 95 percentage. The “Apoptotic Activity” value in the test with HEK 293 cells [1] is 10-15 arbitrary caspase-3 units.

On to `COc1cccc2c1C(=O)c1c(O)c3c(c(O)c1C2=O)C[C@@](O)(C(=O)CO)C[C@@H]3O[C@H]1C[C@H](N)[C@H](O)[C@H](C)O1` [DOX, doxorubicin, reference compound], for which the “Tumor Weight” value in test [5] (IGFBP-3 4 mg/kg/day sc 21 days, doxorubicin 2 mg/kg iv days 1 and 8) is given as 1966 + 677 mg. Moreover, the “Lung Metastases” value in test [5] (animals with metastases/animals) was 0/12. In test [5] (tumors removed at day 21), this compound yielded a Caspase-3 of 7.88 ± 6.27.

Consider “QCRPSKGRKRGFCWAVDKYG (cysteine pairing not given here; also: biotinylated, position not given here) [MBD20, tested biotinylated with streptavidin-HRP]”, for which the “nuclear mobilization of streptavidin-HRP conjugate compared with MBD9” value with HEK293 cells [2] is “far more efficiently”.

On to `CN(C)CCCN1c2ccccc2Sc2ccc(Cl)cc21` [chlorpromazine], for which the “effect on nuclear translocation of MBD peptides” value with HEK293 cells [3] was “inhibit nuclear translocation of MBD peptides”.

Consider QCRPSKGRKRGFCW [MBD2], for which the “IGF dependence of pro-apoptotic activity” value in the test with HEK 293 cells [6] (0.3 ng/ml paclitaxel, alone or with Y60L-IGF-I, FIG. 11C) is “independent of the presence of IGF”. Also, in the test with HEK 293 cells [6] (low serum or paclitaxel, 50 ng/ml, FIGS. 11A, 11B), the “pro-apoptotic activity under stressed conditions” value is “nearly identical”. Also, the “sensitization to paclitaxel” value with MDA-MB-231 cells is given as “sensitizes MDA-MB-231 cells to low doses of paclitaxel”. Further, the “sensitization to doxorubicin” value with MA16C cells is on record as “sensitizes MA16C mammary adenocarcinoma cells to low doses of doxorubicin”. For the same compound, the “pro-apoptotic activity relative to intact IGFBP-3 or a longer peptide” value in the test with HEK293 cells [7] (on a weight basis, FIG. 4B) was 3-4 ×. The “co-apoptotic activity with Fibrinogen” value in the test on HEK293 cells [8] (Fibrinogen 200 ng/ml) stood at 67.5 arbitrary caspase-3 units. Also, the “co-apoptotic activity with Fibronectin” value with HEK293 cells [8] (Fibronectin 200 ng/ml) amounted to 98.3 arbitrary caspase-3 units. Further, the “co-apoptotic activity, plasma protein none” value with HEK293 cells [8] (no plasma protein) amounted to 100.0 arbitrary caspase-3 units. The same compound showed a Metal-binding in test [4] of 66 percentage. The “pro-apoptotic activity with anti-adhesion protein antibodies” value in the test on HEK 293 cells [9] is “inhibited by antibodies against integrins and integrin-associated proteins”. Moreover, in [10], the “binding to the column” value is reported as “binds metal more tightly” and the “imidazole concentration necessary to elute the peptide” value stood at 1 M. Further, in the test on HEK 293 cells [1], the “Apoptotic Activity” value stood at 100 arbitrary caspase-3 units. The “pro-apoptotic activity in cells with blocked pathways” value in test [11] is on record as “inhibited in cells in which the PI3K/ILK kinase signal transduction pathway is blocked, but not in cells where the MAPK signal transduction pathway is blocked”.

The compound QCRPSKGRKRGFCWNGR [MBD7] showed a Metal-binding in test [4] of 11 percentage. In the test on HEK 293 cells [1], the “Apoptotic Activity” value was 89 arbitrary caspase-3 units.

In test [4], QCRPSEGGKRGFCW [MBD3] displayed a Metal-binding of 100 percentage. For the same compound, the “Apoptotic Activity” value with HEK 293 cells [1] is listed as <5 arbitrary caspase-3 units.

In [4], KKGFYKKKQCRPSKGRKRGFCWNGRK [MBD9] gave a Metal-binding of 45 percentage. Also, the “Apoptotic Activity” value in the test with HEK 293 cells [1] is listed as 149 arbitrary caspase-3 units.

The compound CRPSKGRKRGFC [MBD4] had a Metal-binding in test [4] of 92 percentage. Further, the “Apoptotic Activity” value in the test with HEK 293 cells [1] is on record as 10-15 arbitrary caspase-3 units.

Compound QCKPSRGRKRGICW [BP5n1s] yielded a Metal-binding in [4] of 28 percentage. Moreover, in the test with HEK 293 cells [1], the “Apoptotic Activity” value is listed as <5 arbitrary caspase-3 units.

Turning to DKKGFYKKKQCRPSKGRKRGFCW [MBD1], the “pro-apoptotic activity” value in the test on HEK293 cells [7] (FIG. 4A/4B) was “dramatic lowering of pro-apoptotic activity”. The Metal-binding in test [4] is given as 22 percentage. Besides, the “imidazole concentration that elutes the peptide” value in test [10] stood at 60 mM. In addition, the “Apoptotic Activity” value in the test on HEK 293 cells [1] is reported as 10-15 arbitrary caspase-3 units.

For the compound KKEKDIMKKTIQCRPSKGRKRGFCWNGR [MBD10], the “Apoptotic Activity” value with HEK 293 cells [1] is on record as 127 arbitrary caspase-3 units.

(Values after US6914049B2, “IGF-binding protein-derived peptide or small molecule” (Bioexpertise, LLC, priority 2001, dated 2005).)
